Reference: ChEMBL document CHEMBL1212748, “Patients with long-term oral carriage harbor high-persister mutants of Candida albicans” (2010)
≈ marks a conversion by molar mass, not a printed value. Calls of active or inactive are those of the source. The calls are words filed in the database; no cut-off is given here.

Tests used:
[1] = tested on: Candida albicans; assay: Antimicrobial activity against Candida albicans high-persister mutants assessed as microbial death at 10 to 100 ug/ml after 48 hrs by broth microdilution method; type: functional, organism-based
[2] = tested on: Candida albicans; assay: Antimicrobial activity against Candida albicans CAF2-1 assessed as microbial death at 10 to 100 ug/ml after 48 hrs by broth microdilution method; type: functional, organism-based
[3] = tested on: Candida albicans; assay: Antimicrobial activity against Candida albicans low-persister mutants assessed as microbial death at 10 to 100 ug/ml after 48 hrs by broth microdilution method; type: functional, organism-based
[4] = tested on: Candida albicans; assay: Antimicrobial activity against Candida albicans high-persister mutants assessed as microbial death at 50 ug/ml after 48 hrs by broth microdilution method; type: functional, organism-based
[5] = tested on: Candida albicans; assay: Antimicrobial activity against Candida albicans high-persister mutants after 48 hrs by broth microdilution method; type: functional

Question: With `C[C@@H]1[C@H](O)[C@@H](C)/C=C/C=C/C=C/C=C/C=C/C=C/C=C/[C@H](O[C@@H]2O[C@H](C)[C@@H](O)[C@H](N)[C@@H]2O)C[C@@H]2O[C@](O)(C[C@@H](O)C[C@@H](O)[C@H](O)CC[C@@H](O)C[C@@H](O)CC(=O)O[C@H]1C)C[C@H](O)[C@H]2C(=O)O` as the molecule, how does the Activity [1] read?
Answer: Active

Question: And the Activity [2]?
Answer: Active

Question: What about the Activity [3] of the same molecule?
Answer: Active

Question: And the Activity [4]?
Answer: inactive

Question: How did the MIC [5] turn out when `N=C(NCCCCCCNC(=N)NC(=N)Nc1ccc(Cl)cc1)NC(=N)Nc1ccc(Cl)cc1` [CHLORHEXIDINE] was run?
Answer: 1.5 µg/mL (≈ 2.97 µM)
